Source: the supplement of paper PMC11061612

What was measured:
Assay in all cases: Bliss excess, mean over the matrix (fraction); higher = more synergy
[1] = system: L-540 (Hodgkin's Lymphoma)
How it was run: (§1)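 Cell lines grown in DMEM/F12 or RPMI with 10% FBS were plated in 1536-well plates and held 24 hours at 37°C, 5% CO2 before 72 hours of exposure to two-drug dose matrices, with DMSO typically at 0.2%. CellTiter-Glo 2.0 luminescence gave viability, which was converted to inhibition. Vehicle wells were set to 0 and blank wells to 1. Combination Emax is the second-highest inhibition in the matrix, and Bliss excess is the observed combination effect minus the expected EA + EB − EA·EB, where EA and EB are the single-agent effects.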

[2] = system: DND-41 (T-Lymphoblastic Leukemia)
How it was run: as §1

[3] = system: CAMA-1 (Breast Carcinoma)
How it was run: as §1

ES1 (Ewing's Sarcoma) = system: ES1 (Ewing's Sarcoma)
How it was run: as §1

[4] = system: MS751 (Cervical Carcinoma)
How it was run: as §1

[5] = system: TOV-112D (Ovarian Carcinoma)
How it was run: as §1

MEL-JUSO (Melanoma) = system: MEL-JUSO (Melanoma)
How it was run: as §1

CHP-212 (Neuroblastoma) = system: CHP-212 (Neuroblastoma)
How it was run: as §1

[6] = system: BL-41 (Burkitt's Lymphoma)
How it was run: as §1

[7] = system: SW1417 (Colorectal Carcinoma)
How it was run: as §1

[8] = system: SU-DHL-8 (B-Cell Non-Hodgkin's Lymphoma)
How it was run: as §1

U251 (Low Grade Glioma) = system: U251 (Low Grade Glioma)
How it was run: as §1

NCI-H2818 (Mesothelioma) = system: NCI-H2818 (Mesothelioma)
How it was run: as §1

[9] = system: KARPAS-45 (T-Lymphoblastic Leukemia)
How it was run: as §1

[10] = system: COLO-678 (Colorectal Carcinoma)
How it was run: as §1

[11] = system: HDQ-P1 (Breast Carcinoma)
How it was run: as §1

[12] = system: KM12 (Colorectal Carcinoma)
How it was run: as §1

[13] = system: BFTC-905 (Bladder Carcinoma)
How it was run: as §1

WIL2-NS (Non-Cancerous) = system: WIL2-NS (Non-Cancerous)
How it was run: as §1

[14] = system: SW837 (Colorectal Carcinoma)
How it was run: as §1

| Structure (SMILES) | Bliss excess [1] | Bliss excess [2] | Bliss excess [3] | Bliss excess (ES1 (Ewing's Sarcoma)) | Bliss excess [4] | Bliss excess [5] | Bliss excess (MEL-JUSO (Melanoma)) | Bliss excess (CHP-212 (Neuroblastoma)) | Bliss excess [6] | Bliss excess [7] | Bliss excess [8] | Bliss excess (U251 (Low Grade Glioma)) | Bliss excess (NCI-H2818 (Mesothelioma)) | Bliss excess [9] | Bliss excess [10] | Bliss excess [11] | Bliss excess [12] | Bliss excess [13] | Bliss excess (WIL2-NS (Non-Cancerous)) | Bliss excess [14] |
| --- | --- | --- | --- | --- | --- | --- | --- | --- | --- | --- | --- | --- | --- | --- | --- | --- | --- | --- | --- | --- |
| CC(=O)c1c(C)c2cnc(Nc3ccc(N4CCNCC4)cn3)nc2n(C2CCCC2)c1=O [Palbociclib] + CC1(C)CCC(CN2CCN(c3ccc(C(=O)NS(=O)(=O)c4ccc(NCC5CCOCC5)c([N+](=O)[O-])c4)c(Oc4cnc5[nH]ccc5c4)c3)CC2)=C(c2ccc(Cl)cc2)C1 [Venetoclax] (first compound max 10 µM, 7x7, partner max 1 µM) | -0.0852 | -0.0292 | -0.0381 | -0.0214 | -0.0251 | 0.0283 | -0.0309 | 0.023 | -0.0842 | -0.0267 | -0.0096 | -0.0348 | -0.0146 | 0.0598 | 0.0158 | -0.0555 | -0.0041 | -0.046 | 0.0278 | -0.0671 |
| CC(=O)c1c(C)c2cnc(Nc3ccc(N4CCNCC4)cn3)nc2n(C2CCCC2)c1=O [Palbociclib] + Cc1c2c(nn1C)CSCc1cc(n(C)n1)CSc1cc(c3ccccc3c1)OCCCc1c(C(=O)O)n(C)c3c-2c(Cl)ccc13 [AZD5991] (first compound max 10 µM, 7x7, partner max 1 µM) | -0.0063 | 0.0043 | -0.0525 | -0.0169 | -0.0294 | 0.0428 | -0.103 | 0.0199 | -0.0691 | -0.0089 | -0.22 | -0.0479 | -0.0386 | -0.0071 | -0.0814 | -0.0396 | -0.0194 | -0.0167 | -0.0608 | -0.0582 |
| CC(=O)c1c(C)c2cnc(Nc3ccc(N4CCNCC4)cn3)nc2n(C2CCCC2)c1=O [Palbociclib] + Cn1cnc2c(F)c(Nc3ccc(Br)cc3Cl)c(C(=O)NOCCO)cc21 [Selumetinib] (first compound max 10 µM, 7x7, partner max 10 µM) | -0.071 | 0.0601 | -0.027 | -0.0366 | -0.0445 | 0.068 | 0.0028 | -0.0313 | -0.0131 | -0.0094 | 0.0147 | -0.0013 | -0.0013 | 0.0636 | -0.071 | -0.0555 | 0.0039 | 0.0595 | -0.0133 | 0.0075 |
| COc1cccc(OCCCN)c1-c1cc(Nc2cnc(C#N)cn2)n[nH]1 [Prexasertib] + C=CCn1c(=O)c2cnc(Nc3ccc(N4CCN(C)CC4)cc3)nc2n1-c1cccc(C(C)(C)O)n1 [AZD1775] (first compound max 1 µM, partner max 1 µM) | -0.0185 | -0.0247 | 0.11 | 0.0948 | 0.0653 | 0.137 | 0.0303 | -0.0368 | 0.0467 | 0.0443 | -0.0202 | 0.0943 | -0.0212 | 0.0553 | -0.0079 | 0.0861 | 0.0787 | 0.147 | 0.0513 | 0.073 |
| COc1cccc(OCCCN)c1-c1cc(Nc2cnc(C#N)cn2)n[nH]1 [Prexasertib] + CCc1c2c(nc3ccc(O)cc13)-c1cc3c(c(=O)n1C2)COC(=O)[C@]3(O)CC [SN-38] (first compound max 1 µM, 7x7, partner max 0.3 µM) | -0.0621 | -0.103 | 0.0573 | 0.0085 | 0.0628 | 0.0183 | -0.0378 | -0.094 | -0.0231 | 0.0029 | -0.0171 | 0.0241 | -0.0745 | 0.0731 | -0.0355 | 0.0367 | 0.0186 | -0.0004 | -0.0234 | 0.0546 |
| COc1cccc(OCCCN)c1-c1cc(Nc2cnc(C#N)cn2)n[nH]1 [Prexasertib] + CN(C)CCCOc1ccc(-c2ccc3ncc4c(c3c2)n(C2CCOCC2)c(=O)n4C)cn1 [AZD0156] (first compound max 1 µM, 7x7, partner max 1 µM) | 0.0019 | -0.101 | 0.0046 | 0.0127 | 0.02 | 0.0332 | 0.0301 | -0.0377 | -0.0134 | -0.0473 | -0.0553 | -0.0092 | -0.0871 | -0.0485 | -0.036 | 0.023 | -0.0095 | 0.0125 | -0.0281 | -0.0022 |
| COc1cccc(OCCCN)c1-c1cc(Nc2cnc(C#N)cn2)n[nH]1 [Prexasertib] + C[C@@H]1COCCN1C2=NC(=NC(=C2)C3(CC3)[S@](=N)(=O)C)C4=C5C=CNC5=NC=C4 [AZD6738] (first compound max 1 µM, 7x7, partner max 10 µM) | -0.0341 | -0.0651 | -0.0484 | -0.0142 | 0.0539 | 0.0177 | -0.0307 | -0.0776 | -0.0066 | 0.0572 | -0.0214 | -0.0193 | -0.0168 | -0.0117 | -0.0346 | 0.11 | -0.0494 | 0.0096 | -0.0021 | 0.0106 |
| COc1cccc(OCCCN)c1-c1cc(Nc2cnc(C#N)cn2)n[nH]1 [Prexasertib] + Cc1cc2ncnn2cc1Nc1ncc2c(n1)n(C1CCOCC1)c(=O)n2C [AZD7648] (first compound max 1 µM, 7x7, partner max 10 µM) | -0.0223 | -0.0979 | -0.0206 | 0.0088 | -0.0156 | -0.0241 | -0.0383 | -0.0467 | -0.0265 | 0.001 | -0.0221 | -0.0114 | -0.032 | -0.0044 | -0.0384 | -0.0236 | -0.0399 | -0.0492 | -0.0285 | -0.0143 |
| COc1cccc(OCCCN)c1-c1cc(Nc2cnc(C#N)cn2)n[nH]1 [Prexasertib] + O=C(c1cc(Cc2n[nH]c(=O)c3ccccc23)ccc1F)N1CCN(C(=O)C2CC2)CC1 [Olaparib] (first compound max 1 µM, 7x7, partner max 10 µM) | -0.0351 | -0.101 | -0.188 | -0.0161 | 0.034 | 0.0277 | -0.0741 | -0.0592 | -0.0346 | -0.0459 | -0.0668 | 0.0369 | -0.0136 | -0.0081 | -0.0157 | 0.0002 | -0.0192 | -0.0751 | -0.0174 | -0.0854 |
| COc1cc2c(cc1OCCCCCOc1cc3c(cc1OC)C(=O)N1C=C(C)C[C@H]1C=N3)N=C[C@@H]1CC(C)=CN1C2=O [SG3199] + O=C(c1cc(Cc2n[nH]c(=O)c3ccccc23)ccc1F)N1CCN(C(=O)C2CC2)CC1 [Olaparib] (first compound max 0.001 µM, 7x7, partner max 10 µM) | -0.0272 | -0.0067 | -0.0443 | 0.0027 | -0.075 | -0.0167 | -0.024 | 0.0046 | -0.0163 | -0.0472 | 0.0547 | -0.0016 | -0.0642 | -0.0076 | -0.0144 | -0.035 | -0.0301 | -0.054 | -0.0239 | -0.0384 |
| CCc1c2c(nc3ccc(O)cc13)-c1cc3c(c(=O)n1C2)COC(=O)[C@]3(O)CC [SN-38] + CN(C)CCCOc1ccc(-c2ccc3ncc4c(c3c2)n(C2CCOCC2)c(=O)n4C)cn1 [AZD0156] (first compound max 0.3 µM, 7x7, partner max 1 µM) | 0.0206 | -0.0584 | -0.0477 | 0.0784 | 0.0355 | 0.0401 | 0.0265 | 0.0143 | 0.0556 | -0.033 | -0.059 | -0.0239 | 0.015 | -0.0082 | -0.0558 | 0.0065 | 0.0711 | 0.0608 | 0.08 | -0.0613 |
| C[C@@H](c1ccc2nccn2c1)n1nnc2ncc(-c3cnn(C)c3)nc21 [Savolitinib] + CC1(C)CCC(CN2CCN(c3ccc(C(=O)NS(=O)(=O)c4ccc(NCC5CCOCC5)c([N+](=O)[O-])c4)c(Oc4cnc5[nH]ccc5c4)c3)CC2)=C(c2ccc(Cl)cc2)C1 [Venetoclax] (first compound max 1 µM, 7x7, partner max 1 µM) | 0.0201 | -0.0082 | -0.0211 | -0.0515 | -0.028 | -0.0489 | -0.0919 | -0.0707 | -0.0365 | -0.0509 | -0.0419 | -0.0938 | -0.0411 | -0.017 | -0.112 | -0.085 | -0.0559 | -0.0416 | -0.0285 | -0.0813 |
| C[C@@H](c1ccc2nccn2c1)n1nnc2ncc(-c3cnn(C)c3)nc21 [Savolitinib] + Cc1c2c(nn1C)CSCc1cc(n(C)n1)CSc1cc(c3ccccc3c1)OCCCc1c(C(=O)O)n(C)c3c-2c(Cl)ccc13 [AZD5991] (first compound max 1 µM, 7x7, partner max 1 µM) | -0.0054 | -0.0188 | -0.0136 | -0.0152 | -0.0701 | -0.0242 | -0.0269 | -0.0437 | -0.0318 | -0.0228 | -0.0425 | -0.0691 | -0.0343 | -0.0264 | -0.0899 | -0.0456 | -0.0256 | -0.0523 | -0.0262 | -0.0644 |
| Cn1cnc2c(F)c(Nc3ccc(Br)cc3Cl)c(C(=O)NOCCO)cc21 [Selumetinib] + C=CCn1c(=O)c2cnc(Nc3ccc(N4CCN(C)CC4)cc3)nc2n1-c1cccc(C(C)(C)O)n1 [AZD1775] (first compound max 10 µM, partner max 1 µM) | -0.0374 | -0.0248 | -0.0309 | -0.0255 | 0.0171 | -0.0497 | -0.0388 | -0.0257 | -0.0162 | 0.0387 | -0.0846 | -0.0365 | -0.0498 | 0.0001 | 0.0011 | -0.0453 | -0.0672 | -0.0654 | 0.0363 | -0.0207 |
| Cn1cnc2c(F)c(Nc3ccc(Br)cc3Cl)c(C(=O)NOCCO)cc21 [Selumetinib] + CC(C)n1c(=O)n(C)c2cnc3cc(F)c(-c4ccc(OCCCN5CCCCC5)nc4)cc3c21 [AZD1390] (first compound max 10 µM, 7x7, partner max 0.3 µM) | -0.0407 | -0.0022 | -0.0429 | -0.0365 | -0.0171 | -0.0262 | -0.0291 | -0.0337 | 0.0029 | -0.0094 | -0.0201 | -0.0361 | -0.0237 | -0.026 | -0.0409 | -0.0456 | -0.0376 | -0.0074 | -0.0251 | -0.0343 |
